# Assay results as given in patent US9765105B2, “Macrolide compound” (Pulike Biological Engineering, Inc., priority 2013, dated 2017).
# What was measured:
# Assay in all cases: in vitro susceptibility, MIC by mini broth dilution
# Format in all cases: cell-based
# [1] = system: Pasteurella multocida CVCC399; conditions: strain CVCC399
# Method in brief: (§1)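 Bacteria were revived from −20° C stocks and streaked twice on solid medium, each time grown 20 h at 35° C. Compounds were double-diluted in DMSO across 11 wells and tested in two parallel rows. The bacterial suspension was diluted 1:200 with liquid medium before MIC determination by mini broth dilution.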
# [2] = system: Streptococcus equines CVCC556; conditions: strain CVCC556
# Method in brief: as §1
# [3] = system: Actinobacillus pleuropneumoniae CVCC262; conditions: strain CVCC262
# Method in brief: as §1
# Haemophilus parasuis = system: Haemophilus parasuis
# Method in brief: as §1
# [4] = system: Staphylococcus aureus CVCC26003; conditions: strain CVCC26003
# Method in brief: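 MICs were determined by mini broth dilution under NCCLS standards in CAMHB, using revived S. aureus CVCC26003 subcultured 20 h at 35° C. Compounds were two-fold serially diluted in DMSO across 11 wells, with duplicate rows. Bacterial suspension was diluted 1:200 in medium before inoculation.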
Compound,"MIC values, Pasteurella multocida CVCC399 [1]","MIC values, Streptococcus equines CVCC556 [2]","MIC values, Actinobacillus pleuropneumoniae CVCC262 [3]","MIC values, Haemophilus parasuis (Haemophilus parasuis)","MIC values, Staphylococcus aureus CVCC26003 [4]"
CCCN1C[C@H](C)[C@@H](O)[C@](C)(O)[C@@H](CC)OC(=O)[C@H](C)[C@@H](O[C@H]2C[C@@](C)(OC)[C@](O)(CNCCc3ccc(S(N)(=O)=O)cc3)[C@H](C)O2)[C@H](C)[C@@H](O[C@@H]2O[C@H](C)C[C@H](N(C)C)[C@H]2O)[C@](C)(O)C[C@H]1C [syzx-161],0.5 ug/mi,0.25 ug/mi,0.25 ug/mi,0.25 ug/mi,0.25 ug/mi
C#CC=C(C)NC[C@]1(O)[C@H](C)O[C@@H](O[C@H]2[C@H](C)[C@@H](O[C@@H]3O[C@H](C)C[C@H](N(C)C)[C@H]3O)[C@](C)(O)C[C@@H](C)N(CCC)C[C@H](C)[C@@H](O)[C@](C)(O)[C@@H](CC)OC(=O)[C@@H]2C)C[C@@]1(C)OC [syzx-162],1 ug/mi,0.25 ug/mi,0.25 ug/mi,0.25 ug/mi,0.25 ug/mi
CCCN1C[C@H](C)[C@@H](O)[C@](C)(O)[C@@H](CC)OC(=O)[C@H](C)[C@@H](O[C@H]2C[C@@](C)(OC)[C@](O)(CNCc3cnc(C)cn3)[C@H](C)O2)[C@H](C)[C@@H](O[C@@H]2O[C@H](C)C[C@H](N(C)C)[C@H]2O)[C@](C)(O)C[C@H]1C [syzx-165],1 ug/mi,0.25 ug/mi,0.25 ug/mi,0.25 ug/mi,0.25 ug/mi
CCCN1C[C@H](C)[C@@H](O)[C@](C)(O)[C@@H](CC)OC(=O)[C@H](C)[C@@H](O[C@H]2C[C@@](C)(OC)[C@](O)(CNCCc3c[nH]c4ccccc34)[C@H](C)O2)[C@H](C)[C@@H](O[C@@H]2O[C@H](C)C[C@H](N(C)C)[C@H]2O)[C@](C)(O)C[C@H]1C [syzx-174],8 ug/mi,0.25 ug/mi,4 ug/mi,2 ug/mi,4 ug/mi
CCCN1C[C@H](C)[C@@H](O)[C@](C)(O)[C@@H](CC)OC(=O)[C@H](C)[C@@H](O[C@H]2C[C@@](C)(OC)[C@](O)(CNCCCCl)[C@H](C)O2)[C@H](C)[C@@H](O[C@@H]2O[C@H](C)C[C@H](N(C)C)[C@H]2O)[C@](C)(O)C[C@H]1C [syzx-175],0.5 ug/mi,0.5 ug/mi,0.25 ug/mi,0.25 ug/mi,0.5 ug/mi
CCCN1C[C@H](C)[C@@H](O)[C@](C)(O)[C@@H](CC)OC(=O)[C@H](C)[C@@H](O[C@H]2C[C@@](C)(OC)[C@](O)(CNc3ccc(C)o3)[C@H](C)O2)[C@H](C)[C@@H](O[C@@H]2O[C@H](C)C[C@H](N(C)C)[C@H]2O)[C@](C)(O)C[C@H]1C [syzx-178],4 ug/mi,0.5 ug/mi,2 ug/mi,4 ug/mi,4 ug/mi
CCCN1C[C@H](C)[C@@H](O)[C@](C)(O)[C@@H](CC)OC(=O)[C@H](C)[C@@H](O[C@H]2C[C@@](C)(OC)[C@](O)(CNOCc3ccccc3)[C@H](C)O2)[C@H](C)[C@@H](O[C@@H]2O[C@H](C)C[C@H](N(C)C)[C@H]2O)[C@](C)(O)C[C@H]1C [syzx-182],4 ug/mi,0.5 ug/mi,0.5 ug/mi,0.5 ug/mi,1 ug/mi
CCCN1C[C@H](C)[C@@H](O)[C@](C)(O)[C@@H](CC)OC(=O)[C@H](C)[C@@H](O[C@H]2C[C@@](C)(OC)[C@](O)(CNc3ccc(OC)cc3)[C@H](C)O2)[C@H](C)[C@@H](O[C@@H]2O[C@H](C)C[C@H](N(C)C)[C@H]2O)[C@](C)(O)C[C@H]1C [syzx-183],2 ug/mi,0.25 ug/mi,0.5 ug/mi,0.25 ug/mi,0.25 ug/mi

# Continued, values first:
"MIC values, Pasteurella multocida CVCC399 [1]","MIC values, Streptococcus equines CVCC556 [2]","MIC values, Actinobacillus pleuropneumoniae CVCC262 [3]","MIC values, Haemophilus parasuis (Haemophilus parasuis)","MIC values, Staphylococcus aureus CVCC26003 [4]",Compound
1 ug/mi,0.25 ug/mi,0.25 ug/mi,0.25 ug/mi,0.25 ug/mi,CCCC(C)NC[C@]1(O)[C@H](C)O[C@@H](O[C@H]2[C@H](C)[C@@H](O[C@@H]3O[C@H](C)C[C@H](N(C)C)[C@H]3O)[C@](C)(O)C[C@@H](C)N(CCC)C[C@H](C)[C@@H](O)[C@](C)(O)[C@@H](CC)OC(=O)[C@@H]2C)C[C@@]1(C)OC (stereo partly drawn) [syzx-163]
2 ug/mi,0.5 ug/mi,0.25 ug/mi,0.25 ug/mi,0.25 ug/mi,CCCN1C[C@H](C)[C@@H](O)[C@](C)(O)[C@@H](CC)OC(=O)[C@H](C)[C@@H](O[C@H]2C[C@@](C)(OC)[C@](O)(CNCCc3ccncc3)[C@H](C)O2)[C@H](C)[C@@H](O[C@@H]2O[C@H](C)C[C@H](N(C)C)[C@H]2O)[C@](C)(O)C[C@H]1C [syzx-164]
4 ug/mi,0.25 ug/mi,2 ug/mi,2 ug/mi,2 ug/mi,CCCN1C[C@H](C)[C@@H](O)[C@](C)(O)[C@@H](CC)OC(=O)[C@H](C)[C@@H](O[C@H]2C[C@@](C)(OC)[C@](O)(CNCC3CCCCC3)[C@H](C)O2)[C@H](C)[C@@H](O[C@@H]2O[C@H](C)C[C@H](N(C)C)[C@H]2O)[C@](C)(O)C[C@H]1C [syzx-167]
1 ug/mi,0.25 ug/mi,0.25 ug/mi,0.25 ug/mi,0.25 ug/mi,CCCN1C[C@H](C)[C@@H](O)[C@](C)(O)[C@@H](CC)OC(=O)[C@H](C)[C@@H](O[C@H]2C[C@@](C)(OC)[C@](O)(CNc3ccccc3F)[C@H](C)O2)[C@H](C)[C@@H](O[C@@H]2O[C@H](C)C[C@H](N(C)C)[C@H]2O)[C@](C)(O)C[C@H]1C [syzx-168]
0.5 ug/mi,0.25 ug/mi,0.25 ug/mi,0.25 ug/mi,0.25 ug/mi,CCCN1C[C@H](C)[C@@H](O)[C@](C)(O)[C@@H](CC)OC(=O)[C@H](C)[C@@H](O[C@H]2C[C@@](C)(OC)[C@](O)(CNCCCN3CCOCC3)[C@H](C)O2)[C@H](C)[C@@H](O[C@@H]2O[C@H](C)C[C@H](N(C)C)[C@H]2O)[C@](C)(O)C[C@H]1C [syzx-169]
4 ug/mi,0.25 ug/mi,1 ug/mi,1 ug/mi,2 ug/mi,CCCN1CC(C)C(O)C(C)(O)C(CC)OC(=O)C(C)C(OC2CC(C)(OC)C(O)(CNNc3ccccc3)C(C)O2)C(C)C(OC2OC(C)CC(N(C)C)C2O)C(C)(O)CC1C (stereo not drawn) [syzx-173]
2 ug/mi,0.25 ug/mi,0.25 ug/mi,0.5 ug/mi,0.5 ug/mi,CCCN1C[C@H](C)[C@@H](O)[C@](C)(O)[C@@H](CC)OC(=O)[C@H](C)[C@@H](O[C@H]2C[C@@](C)(OC)[C@](O)(CNc3cc(OC)cc(OC)c3)[C@H](C)O2)[C@H](C)[C@@H](O[C@@H]2O[C@H](C)C[C@H](N(C)C)[C@H]2O)[C@](C)(O)C[C@H]1C [syzx-176]
1 ug/mi,0.25 ug/mi,0.5 ug/mi,0.25 ug/mi,0.25 ug/mi,CCCN1CC(C)C(O)C(C)(O)C(CC)OC(=O)C(C)C(OC2CC(C)(OC)C(O)(CNNc3ccc(F)cc3)C(C)O2)C(C)C(OC2OC(C)CC(N(C)C)C2O)C(C)(O)CC1C (stereo not drawn) [syzx-181]
4 ug/mi,0.5 ug/mi,2 ug/mi,2 ug/mi,2 ug/mi,CCCN1C[C@H](C)[C@@H](O)[C@](C)(O)[C@@H](CC)OC(=O)[C@H](C)[C@@H](O[C@H]2C[C@@](C)(OC)[C@](O)(CNc3ccc(C)c(C)c3)[C@H](C)O2)[C@H](C)[C@@H](O[C@@H]2O[C@H](C)C[C@H](N(C)C)[C@H]2O)[C@](C)(O)C[C@H]1C [syzx-184]
1 ug/mi,0.25 ug/mi,0.5 ug/mi,0.5 ug/mi,0.5 ug/mi,CCCN1C[C@H](C)[C@@H](O)[C@](C)(O)[C@@H](CC)OC(=O)[C@H](C)[C@@H](O[C@H]2C[C@@](C)(OC)[C@](O)(CNCCCN3CCOCC3)[C@H](C)O2)[C@H](C)[C@@H](O[C@@H]2O[C@H](C)C[C@H](N(C)C)[C@H]2O)[C@](C)(O)C[C@H]1C [syzx-188]
